Measurements: patent US9260382B2, “Methods of reducing virulence in bacteria” (priority 2010, dated 2016)
Entries after “also recorded” stand apart in the source; their conditions may differ.

Tests used:
[1] = test system: hrpA promoter (T3SS); assay: GFP reporter plasmid phrpA, flow cytometry (FACS) of hrpA promoter activity; type: cell-based, Dickeya dadantii 3937; conditions: for mean fluorescence intensity of GFP, hrpA expression: D. dadantii 3937 (phrpA), MM + 100 μM compound; for minimal effective concentration: Dickeya dadantii, read-out: minimal inhibitory concentration on hrpA expression (concentration showing inhibitory effect); for inhibitory activity on T3SS gene (hrpA) expression, in words: D. dadantii 3937, reporter plasmid phrpA, 100 μM
Description: FACS analysis of promoter activity of dspE, hrpA, hrpL, hrpN, and hrpS was carried out as described (Peng et al., 2006). Briefly, the wild-type Ech3937 and the mutant strains carrying the promoter reporter plasmid were grown on LB broth at 28° C. overnight and transferred to appropriate media. For FACS analysis, samples were collected by centrifugation, washed with 1× phosphate buffer saline (PBS) at 13,000 rpm for 1 min, and re-suspended in 1×PBS to ca 10^6 CFU/ml prior to being run in a FACS Calibur flow cytometer (BD Biosciences, CA). Three replicates were performed for each treatment.
To identify potential compounds that repress activation of T3SS, analogs and isomers of TCA and intermediates of salicylic acid and phenypropanoid biosynthesis pathways in plants were further screened for their effect on Ech3937 hrpA expression by flow cytometry (Table 9). A green fluorescent protein (GFP) reporter plasmid phrpA (pProbe-AT derivative with PCR fragment containing hrpA promoter region) was constructed, resulting in a transcriptional fusion of hrpA promoter with GFP gene. Bacterial cells containing phrpA plasmid were grown in MM supplemented with 0.1 mM of each compound. GFP intensity, which is a measurement of hrpA promoter activity, was measured by flow cytometry.
hrpA encodes the T3SS pilus required for protein translocation into plant cells. To test for an inhibitory effect on T3SS hrpA expression, the reporter plasmid phrpA was used to measure the effects of these compounds on hrpA expression. The reporter plasmid phrpA encodes a transcriptional fusion of the hrpA promoter controlling expression of green fluorescent protein (gfp). 50 μL of bacterial suspension of D. dadantii 3937 carrying the hrpA reporter (optical density at 600 nm OD600=1.0) was used as the initial inoculum and added to 5 mL of MM or MM supplemented with 100 μM of one of the compounds. The expression level of hrpA of these bacterial cells was measured by measuring GFP intensity of gated populations of the bacterial cells by flow cytometry and analyzed with Cell Quest software (BD Biosciences, San Jose, Calif.). The fluorescence intensities were an average GFP fluorescence intensity of total bacterial cells. Compounds were assayed two different times (12 and 24 h of bacterial growth) with T3SS minimal media (MM) as the control treatment for each set of experiment. Values presented in Table 14 are mean fluorescence intensity of GFP, representative of two experiments, presented as the average of three replicates with standard deviation (SD).

[2] = test system: hrpA promoter (T3SS); assay: hrpA promoter-probe phrpA in Erwinia amylovora 273, flow cytometry; type: cell-based; conditions: Ea273 (phrpA), HIM + 100 μM compound
Description: Wild-type Erwinia amylovora 273 was used in this study. The promoter-probe plasmid phrpA was constructed as follows. The hrpA promoter region of Erwinia amylovora 273 was amplified and cloned into pPROBE-NT to produce PhrpA. Plasmid PhrpA was electroporated into Erwinia amylovora 273. Expression of hrpA was analyzed using a FACS Calibur flow cytometer (BD Biosciences, CA). Wild-type Erwinia amylovora 273 containing phrpA was cultured in a hrp-inducing medium (HIM) containing dimethyl sulfoxide (DMSO; solvent of chemical compounds), or HIM supplemented with 100 μM of each compound, and promoter activity was assessed at 6 h and 9 h by measuring GFP intensity using flow cytometry (Table 19).

Molecule | mean fluorescence intensity of GFP, hrpA expression ([1]; 12 h) | mean fluorescence intensity of GFP, hrpA expression ([1]; 24 h) | Avg MFI ± SD, hrpA expression ([2]; 6 h) | Avg MFI ± SD, hrpA expression ([2]; 9 h) | minimal effective concentration [1] | inhibitory activity on T3SS gene (hrpA) expression, in words [1] | Mean Fluorescence Intensity of GFP (hrpA, phrpA) ([1]; Trial 2, MM supplemented with compound at 100 μM)
CCOC(=O)[C@@H]1C[C@H]1c1ccc(OC)cc1 (relative stereo) [Compound 100, Ethyl trans-2-(4-methoxyphenyl)-1-cyclopropanecarboxylate] | 45.3 ± 3.4 | 119.1 ± 22.1 | 447.8 ± 20.2 | 594.6 ± 3.5 | – | – | –
COc1ccc([C@@H]2C[C@H]2C(=O)O)cc1 (relative stereo) [Compound 105, trans-2-(4-Methoxyphenyl)-1-cyclopropanecarboxylic acid] | 22.9 ± 2.6 | 82.4 ± 5.8 | 345.3 ± 11.9 | 200.2 ± 11.0 | 100 µM | – | –
O=C(O)[C@@H]1C[C@H]1c1ccc(O)cc1 (relative stereo) [Compound 107, trans-2-(4-Hydroxyphenyl)-1-cyclopropanecarboxylic acid] | 45.9 ± 2.7 | 122.1 ± 17.9 | 1464.3 ± 76.5 | 1348.0 ± 82.6 | – | no inhibitory activity | –
NC(=O)/C=C/c1ccc(O)cc1 [Compound 102, trans-4-Hydroxycinnamaide] | 21.1 ± 1.2 | 60.8 ± 10.6 | 1134.0 ± 36.7 | 766.4 ± 94.8 | 100 µM | did not show any inhibitory activity | –
O=C(O)/C=C/c1ccc(-c2ccccc2)cc1 [Compound 108, trans-4-Phenylcinnamic acid] | 31.6 ± 2.5 | 109.0 ± 19.8 | – | – | – | inactive | –
NC(=O)/C=C/c1ccc(Cl)cc1 [Compound 109, trans-4-Chlorocinnamide] | 35.7 ± 6.3 | 81.5 ± 3.8 | 172.9 ± 20.5 | 90.6 ± 12.0 | – | – | –
O=C(O)/C=C/c1ccc(F)cc1 [Compound 110, trans-4-Fluorocinnamic acid] | 63.4 ± 8.0 | 183.8 ± 19.2 | 279.2 ± 5.3 | 152.4 ± 0.7 | – | inactive | –
CN(C)c1ccc(/C=C/C(=O)O)cc1 [Compound 112, trans-4-Dimethylaminocinnamic acid] | 23.8 ± 4.3 | 60.7 ± 6.4 | 87.0 ± 4.0 | 37.3 ± 3.7 | – | – | –
O=C(O)/C=C/c1ccc(C(F)(F)F)cc1 [Compound 113, trans-4-Trifluoromethylcinnamic acid] | 24.4 ± 0.9 | 68.5 ± 5.7 | 84.2 ± 7.5 | 97.4 ± 23.6 | 100 µM | inactive | –
CCOP(=O)(/C=C/c1ccc(O)cc1)OCC [Compound 114, Diethyl trans-2-(4-hydroxyphenyl)-vinylphosphonate] | 55.4 ± 1.0 | 76.5 ± 5.6 | 495.8 ± 14.2 | 661.2 ± 134.3 | – | did not exhibit any activity | –
O=P(O)(O)/C=C/c1ccc(O)cc1 [Compound 115, trans-2-(4-Hydroxyphenyl)-vinylphosphonic acid] | 57.9 ± 1.6 | 79.6 ± 3.3 | 442.4 ± 2.3 | 553.3 ± 32.7 | – | did not exhibit any activity | –
O=C1c2ccccc2C(=O)N1C/C=C/c1ccc(O)cc1 [Compound 116, N-(para-Coumaryl)phthalimide] | 24.3 ± 1.5 | 39.3 ± 3.5 | 889.1 ± 61.8 | 1466.4 ± 17.8 | 100 µM | showed inhibitory effect; also recorded: moderated inhibitory activity | 27.0 ± 2.1
NC/C=C/c1ccc(O)cc1 [Compound 117, para-Coumarylamine] | 49.8 ± 1.6 | 73.1 ± 2.0 | 452.6 ± 9.5 | 547.9 ± 112.4 | – | did not show any inhibitory activity | –
O=C(/C=C/c1ccccc1F)NO [Compound 154, trans-2-Fluorocinnamohydroxamic acid] | – | – | 111.4 ± 15.1 | 77.8 ± 1.3 | – | – | –
O=C(/C=C/c1ccc([N+](=O)[O-])cc1)NO [Compound 155, trans-4-Nitrocinnamohydroxamic acid] | – | – | 108.4 ± 8.5 | 132.5 ± 2.6 | – | – | –
O=C(/C=C/c1cccc([N+](=O)[O-])c1)NO [Compound 156, trans-3-Nitrocinnamohydroxamic acid] | – | – | 67.8 ± 17.9 | 99.5 ± 4.9 | – | – | –
O=C(/C=C/c1ccccc1[N+](=O)[O-])NO [Compound 157, trans-2-Nitrocinnamohydroxamic acid] | – | – | 104.6 ± 7.3 | 96.2 ± 3.3 | – | – | –
COc1cccc(/C=C/C(=O)NO)c1 [Compound 158, trans-3-Methoxycinnamohydroxamic acid] | – | – | 216.2 ± 12.5 | 250.6 ± 13.9 | – | – | –
COc1ccccc1/C=C/C(=O)NO [Compound 159, trans-2-Methoxycinnamohydroxamic acid] | – | – | 256.3 ± 10.8 | 337.3 ± 15.2 | – | – | –
Cc1ccccc1/C=C/C(=O)NO [Compound 160, trans-2-Methylcinnamohydroxamic acid] | – | – | 122.7 ± 1.9 | 95.7 ± 3.7 | – | – | –
O=C(/C=C/c1cccs1)NO [Compound 161, trans-3-(2-Thienyl)acrylhydroxamic acid] | – | – | 132.4 ± 13.2 | 145.0 ± 11.7 | – | – | –
O=C(/C=C/c1ccco1)NO [Compound 163, trans-3-(2-Furyl)acrylhydroxamic acid] | – | – | 231.5 ± 7.0 | 196.5 ± 14.9 | – | – | –
O=C(O)/C=C/c1ccc(C(=O)Cc2ccccc2)cc1 [Compound 164, trans-4-(Benzylcarbonyl)cinnamic acid] | – | – | 155.7 ± 22.2 | 116.4 ± 6.7 | – | – | –
O=C(Cc1ccccc1)c1ccc(C2CC2C(=O)O)cc1 (stereo not drawn) [Compound 165, trans-2-[(4′-Benzylcarbonyl]phenylcyclopropane-1-carboxylic acid] | – | – | 292.8 ± 17.1 | 229.4 ± 15.0 | – | – | –
O=C(O)/C=C/c1ccc(C(=O)Nc2ccccc2)cc1 [Compound 166, trans-4-(Carbo-phenylamide)cinnamic acid] | – | – | 105.0 ± 53.0 | 221.2 ± 22.2 | – | – | –
CN(C(=O)c1ccc(/C=C/C(=O)O)cc1)c1ccccc1 [Compound 167, trans-4-(Carbo-N-methyl-phenylamide)cinnamic acid] | – | – | 729.7 ± 67.5 | 707.3 ± 55.9 | – | – | –
Benzoic acid [Compound 034] | – | – | 48.1 ± 5.4 | 32.6 ± 1.9 | – | – | –
